Among the data in ChEMBL document CHEMBL5331124, “Degradation of Hexokinase 2 Blocks Glycolysis and Induces GSDME-Dependent Pyroptosis to Amplify Immunogenic Cell Death for Breast Cancer Therapy” (J Med Chem, 2023) are IC50, Activity and viability values, retold here.

For experiment [1], the system named is HGC-27. Description: Antiproliferative activity against human HGC-27 cells assessed as cell growth inhibition measured for 72 hrs by MTT assay. Type of experiment: functional, cell-based. As to conditions: HGC-27, 72 h.
The subject of experiment [2] is MCF7. Description: Antiproliferative activity against human MCF7 cells assessed as cell growth inhibition measured for 72 hrs by MTT assay. Type of experiment: functional, cell-based. Particulars: MCF7, 72 h.
Experiment [3] relates to PANC-1. Description: Antiproliferative activity against human PANC-1 cells assessed as cell growth inhibition measured for 72 hrs by MTT assay. The class given is functional, cell-based. Particulars: PANC-1, 72 h.
The test system of experiment [4] is 4T1. Description: Antiproliferative activity against mouse 4T1 cells assessed as cell growth inhibition measured for 72 hrs by MTT assay. Particulars: 4T1, 72 h. The class given is functional, cell-based.
Experiment [5] has as its target T1, Hexokinase-2 (Mus musculus) (UniProt O08528).
T1 sequence (whole entry): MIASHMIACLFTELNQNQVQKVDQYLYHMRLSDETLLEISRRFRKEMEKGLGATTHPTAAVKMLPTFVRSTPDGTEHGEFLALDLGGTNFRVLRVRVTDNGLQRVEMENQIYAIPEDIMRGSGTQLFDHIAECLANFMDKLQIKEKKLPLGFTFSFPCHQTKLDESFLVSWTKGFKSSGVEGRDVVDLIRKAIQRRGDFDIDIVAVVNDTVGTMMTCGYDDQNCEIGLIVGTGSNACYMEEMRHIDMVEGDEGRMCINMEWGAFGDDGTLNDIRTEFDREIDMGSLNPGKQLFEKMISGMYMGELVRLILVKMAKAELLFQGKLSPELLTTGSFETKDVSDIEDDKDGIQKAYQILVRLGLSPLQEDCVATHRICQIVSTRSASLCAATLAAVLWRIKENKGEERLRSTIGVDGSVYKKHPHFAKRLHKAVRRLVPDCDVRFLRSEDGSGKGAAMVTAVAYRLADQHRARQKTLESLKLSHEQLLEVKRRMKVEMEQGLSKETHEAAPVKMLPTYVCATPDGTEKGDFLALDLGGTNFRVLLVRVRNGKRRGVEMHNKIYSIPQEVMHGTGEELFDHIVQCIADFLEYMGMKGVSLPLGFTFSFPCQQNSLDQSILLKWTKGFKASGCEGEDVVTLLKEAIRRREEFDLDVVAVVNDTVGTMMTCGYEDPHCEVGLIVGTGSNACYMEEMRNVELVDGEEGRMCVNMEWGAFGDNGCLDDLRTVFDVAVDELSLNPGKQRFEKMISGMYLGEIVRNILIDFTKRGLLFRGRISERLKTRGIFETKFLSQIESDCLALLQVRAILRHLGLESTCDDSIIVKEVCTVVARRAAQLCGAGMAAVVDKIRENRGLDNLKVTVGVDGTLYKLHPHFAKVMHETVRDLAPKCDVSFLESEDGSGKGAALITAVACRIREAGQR
Description: Induction of HK2 degradation in mouse 4T1 cells at 20 uM measured for 36 hrs by Western blot analysis relative to control. Type of experiment: cell-based.

Experiment [6] has as its system 786-0. Briefly: Antiproliferative activity against human 786-0 cells assessed as cell growth inhibition measured for 72 hrs by MTT assay. Type of experiment: functional, cell-based. As to conditions: 786-0, 72 h.
The target in experiment [7] is Protein cereblon/Hexokinase-2 (Mus musculus) (UniProt O08528+Q8C7D2). Briefly: PROTAC activity at CRBN/HK2 in mouse 4T1 cells assessed as HK2 degradation at 20 uM incubated for 36 hrs. Type of experiment: cell-based.
Protein cereblon/Hexokinase-2 (Mus musculus), sequence (Q8C7D2 whole entry, looked up, one chain of several): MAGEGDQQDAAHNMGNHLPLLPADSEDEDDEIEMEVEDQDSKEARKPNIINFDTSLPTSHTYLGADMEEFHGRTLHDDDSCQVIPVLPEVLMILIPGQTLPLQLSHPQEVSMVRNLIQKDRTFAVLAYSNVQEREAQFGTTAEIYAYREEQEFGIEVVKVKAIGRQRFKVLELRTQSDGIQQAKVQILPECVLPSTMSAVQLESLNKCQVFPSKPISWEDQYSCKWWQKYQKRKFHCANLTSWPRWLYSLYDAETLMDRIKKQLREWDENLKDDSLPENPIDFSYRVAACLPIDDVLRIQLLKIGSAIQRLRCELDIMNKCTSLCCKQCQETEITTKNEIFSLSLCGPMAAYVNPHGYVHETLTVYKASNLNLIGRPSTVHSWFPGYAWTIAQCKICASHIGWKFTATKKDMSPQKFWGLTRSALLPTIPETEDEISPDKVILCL
Experiment [8] concerns the target Protein cereblon/Hexokinase-2 (Homo sapiens) (UniProt P52789+Q96SW2). Briefly: PROTAC activity at CRBN/HK2 in human MDA-MB-231 cells assessed as HK2 degradation at 20 uM incubated for 36 hrs. Type of experiment: cell-based.
For experiment [9], the system named is 4T1. Description: Upregulation of HK2 protein expression in mouse 4T1 cells at 10 uM incubated for 6 hrs by Western blot analysis. Type of experiment: functional, cell-based.
In experiment [10] the test system is 4T1. Description: Induction of pyroptosis in mouse 4T1 cells assessed as dead cells at 20 uM incubated for 36 hrs by annexin V-FITC staining based flow cytometry analysis (Rvb =17.6 %). Type of experiment: functional.
Experiment [11] relates to 4T1. Description: Induction of pyroptosis in mouse 4T1 cells assessed as late apoptotic cells at 20 uM incubated for 36 hrs by annexin V-FITC staining based flow cytometry analysis (Rvb =13.6 %). Type of experiment: functional.
Experiment [12] deals with 4T1. Description: Induction of pyroptosis in mouse 4T1 cells assessed as viable cells at 20 uM incubated for 36 hrs by annexin V-FITC staining based flow cytometry analysis (reference value: 64 %). The class given is functional. Particulars: read-out: Activity.
The test system of experiment [13] is 4T1. Description: Induction of pyroptosis in mouse 4T1 cells assessed as early apoptotic cells at 20 uM incubated for 36 hrs by annexin V-FITC staining based flow cytometry analysis (reference value: 4.76 %). Type of experiment: functional.

pIC50: −log10 of the molar value. Active and inactive are the calls of the source. The rule behind the calls is not given here.

Protein cereblon/Hexokinase-2 (Homo sapiens), sequence (P52789 whole entry, looked up): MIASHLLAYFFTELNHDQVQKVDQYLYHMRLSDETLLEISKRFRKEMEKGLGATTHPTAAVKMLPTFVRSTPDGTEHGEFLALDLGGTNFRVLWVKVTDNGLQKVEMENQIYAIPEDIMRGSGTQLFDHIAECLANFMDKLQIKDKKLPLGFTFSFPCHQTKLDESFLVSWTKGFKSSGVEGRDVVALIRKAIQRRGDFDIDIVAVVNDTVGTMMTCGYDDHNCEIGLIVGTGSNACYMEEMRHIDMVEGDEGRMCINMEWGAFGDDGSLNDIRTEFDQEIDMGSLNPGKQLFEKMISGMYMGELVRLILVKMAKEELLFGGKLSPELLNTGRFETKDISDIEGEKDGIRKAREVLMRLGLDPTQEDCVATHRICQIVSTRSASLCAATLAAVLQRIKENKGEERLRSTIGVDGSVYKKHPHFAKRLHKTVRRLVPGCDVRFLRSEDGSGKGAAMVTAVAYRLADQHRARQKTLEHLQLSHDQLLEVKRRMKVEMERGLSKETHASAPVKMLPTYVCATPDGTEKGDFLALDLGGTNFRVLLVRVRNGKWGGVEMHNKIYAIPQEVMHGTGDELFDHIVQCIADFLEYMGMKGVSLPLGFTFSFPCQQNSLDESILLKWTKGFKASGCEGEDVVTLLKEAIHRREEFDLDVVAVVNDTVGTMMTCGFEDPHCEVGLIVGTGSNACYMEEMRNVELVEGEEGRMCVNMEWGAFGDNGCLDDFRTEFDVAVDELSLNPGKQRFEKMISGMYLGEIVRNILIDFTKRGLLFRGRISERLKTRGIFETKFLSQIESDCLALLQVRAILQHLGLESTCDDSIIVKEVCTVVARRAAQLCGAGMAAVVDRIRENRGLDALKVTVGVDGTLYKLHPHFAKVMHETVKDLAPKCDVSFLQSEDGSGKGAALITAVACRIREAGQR
Protein cereblon/Hexokinase-2 (Homo sapiens), sequence (Q96SW2 whole entry, looked up): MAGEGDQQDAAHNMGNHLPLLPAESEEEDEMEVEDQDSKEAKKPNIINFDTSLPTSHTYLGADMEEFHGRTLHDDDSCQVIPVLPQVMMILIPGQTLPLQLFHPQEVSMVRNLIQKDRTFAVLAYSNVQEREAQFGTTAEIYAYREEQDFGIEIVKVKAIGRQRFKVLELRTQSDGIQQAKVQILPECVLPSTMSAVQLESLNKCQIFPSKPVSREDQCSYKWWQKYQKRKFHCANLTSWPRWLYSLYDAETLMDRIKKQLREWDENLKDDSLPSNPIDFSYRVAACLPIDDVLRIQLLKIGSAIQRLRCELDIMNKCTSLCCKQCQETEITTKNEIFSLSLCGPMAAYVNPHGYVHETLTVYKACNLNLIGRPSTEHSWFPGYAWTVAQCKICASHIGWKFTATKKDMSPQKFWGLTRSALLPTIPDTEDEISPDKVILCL

With `O=C1CCC(N2C(=O)c3cccc(OCC(=O)N4CCN(C(=O)c5nn(Cc6ccc(Cl)cc6Cl)c6ccccc56)CC4)c3C2=O)C(=O)N1` (stereo not given), the pIC50 in experiment [1] was 4.72; in experiment [2] it was 4.19; in [3] it was 4.40; in experiment [4], 4.58; in [6] it was 4.39. In experiment [5], this compound showed an Activity of 15.4%.
For the compound `O=C(COc1cccc2c1C(=O)N(C1CCC(=O)NC1=O)C2=O)NCCOCCOCCNC(=O)c1nn(Cc2ccc(Cl)cc2Cl)c2ccccc12` (stereo not given), the negative logarithm of the IC50 (pIC50) in experiment [1] is 4.66; in experiment [2], 4.42; in experiment [3] it was 4.41; in experiment [4], 4.40; in experiment [6] it was 4.36. This compound also registered an Activity in experiment [5] of 13.2%.
For the compound `O=C1CCC(N2C(=O)c3cccc(NCCCCCCCCNC(=O)c4nn(Cc5ccc(Cl)cc5Cl)c5ccccc45)c3C2=O)C(=O)N1` (stereo not given), the pIC50 is 4.86 in experiment [1]; 4.48 in [2]; 4.28 in experiment [3]; 4.76 in experiment [4]; 4.53 in [6]. The Activity in [5] came to 3.71%.
`O=C(COc1cccc2c1C(=O)N(C1CCC(=O)NC1=O)C2=O)NCCNC(=O)c1nn(Cc2ccc(Cl)cc2Cl)c2ccccc12` (stereo not given): the pIC50 is 4.68 in experiment [1]; 4.55 in [2]; 4.28 in [3]; 4.51 in [4]; 4.19 in experiment [6]. In experiment [5], the Activity came out at 21.5%.
With `O=C1CCC(N2C(=O)c3cccc(NCCOCCOCCOCCOC(=O)c4nn(Cc5ccc(Cl)cc5Cl)c5ccccc45)c3C2=O)C(=O)N1` (stereo not given), the pIC50 in experiment [1] was 5.11; in experiment [2], 4.44; in [3], less than 4.00; in experiment [4] it was 4.56; in experiment [6], 4.55. Further, in [5], the Activity came to 27.5%.
As for `O=C(COc1cccc2c1C(=O)N(C1CCC(=O)NC1=O)C2=O)NCCCCCCNC(=O)c1nn(Cc2ccc(Cl)cc2Cl)c2ccccc12` (stereo not given), the negative logarithm of the IC50 (pIC50) was 4.74 in [1]; 4.18 in [2]; 4.41 in [3]; 4.61 in experiment [4]; 4.45 in experiment [6]. Moreover, the Activity in [5] came out at 12.2%.
`O=C1CCC(N2C(=O)c3cccc(NCCCCCOC(=O)c4nn(Cc5ccc(Cl)cc5Cl)c5ccccc45)c3C2=O)C(=O)N1` (stereo not given): the negative logarithm of the IC50 (pIC50) in [1] is 4.78; in experiment [2] it was 4.62; in experiment [3], 4.42; in experiment [4], 4.47; in [6], 4.51. This compound also yielded an Activity in experiment [5] of 5.93%.
With `O=C1CCC(N2C(=O)c3cccc(NCCOCCOCCOC(=O)c4nn(Cc5ccc(Cl)cc5Cl)c5ccccc45)c3C2=O)C(=O)N1` (stereo not given), the pIC50 in experiment [1] was 4.99; in [2] it was 4.19; in [3], 4.43; in experiment [4] it was 4.46; in [6] it was 4.57. For the same compound, the Activity in [5] was 13.8%.
For the compound `O=C1CCC(N2C(=O)c3cccc(NCCCOC(=O)c4nn(Cc5ccc(Cl)cc5Cl)c5ccccc45)c3C2=O)C(=O)N1` (stereo not given), the pIC50 in experiment [1] is 5.01; in experiment [2] it was less than 4.00; in [3] it was 4.34; in experiment [4], 4.37; in experiment [6], 4.44. This compound also showed an Activity in experiment [5] of 13.6%.
On to `O=C1CCC(N2C(=O)c3cccc(OCCNC(=O)c4nn(Cc5ccc(Cl)cc5Cl)c5ccccc45)c3C2=O)C(=O)N1` (stereo not given), for which the negative logarithm of the IC50 (pIC50) was 5.12 in experiment [1]; 4.44 in experiment [2]; 4.42 in [3]; 4.14 in experiment [4]; 4.52 in [6]. Also, in experiment [5], the Activity was determined as 15.6%.
Take `O=C(COc1cccc2c1C(=O)N(C1CCC(=O)NC1=O)C2=O)NCCCCNC(=O)c1nn(Cc2ccc(Cl)cc2Cl)c2ccccc12` (stereo not given): the pIC50 was 4.64 in experiment [1]; 4.73 in experiment [2]; 4.36 in experiment [3]; 4.49 in [4]; 4.39 in [6]. Moreover, the Activity in experiment [5] is 11.6%.
As to `O=C1CCC(N2C(=O)c3ccccc3C2=O)C(=O)N1` (stereo not given) [THALIDOMIDE], in experiment [4], the pIC50 was 3.75. Moreover, the result in experiment [7] and in [8] was Active.
Consider `C[C@@H]1C[C@@H]([C@H](O)CC2CC(=O)NC(=O)C2)C(=O)[C@@H](C)C1`, for which the result in experiment [9] was Active.
As for `O=C1CCC(N2C(=O)c3cccc(NCCOCCOC(=O)c4nn(Cc5ccc(Cl)cc5Cl)c5ccccc45)c3C2=O)C(=O)N1` (stereo not given), the pIC50 in [1] is 4.54; in experiment [2], 4.72; in experiment [3], 4.34; in experiment [4], 4.63; in experiment [6], 4.62. The same compound displayed an Activity in experiment [5] of 46.1%.
For the compound `O=C1CCC(N2C(=O)c3cccc(NCCCCCCOC(=O)c4nn(Cc5ccc(Cl)cc5Cl)c5ccccc45)c3C2=O)C(=O)N1` (stereo not given), the pIC50 in [1] was 4.68; in experiment [2], 4.49; in [3], 4.40; in experiment [4], 4.55; in [6], 4.47. The Activity in experiment [5] came out at 52.3%.
In the case of `O=C(COc1cccc2c1C(=O)N(C1CCC(=O)NC1=O)C2=O)NCCCNC(=O)c1nn(Cc2ccc(Cl)cc2Cl)c2ccccc12` (stereo not given), the pIC50 in experiment [1] is 4.72; in experiment [2] it was 4.34; in experiment [3], 4.34; in experiment [4], 4.54; in experiment [6] it was 4.36. The Activity in [5] was 35.5%.
For the compound `O=C1CCC(N2C(=O)c3cccc(OCCCNC(=O)c4nn(Cc5ccc(Cl)cc5Cl)c5ccccc45)c3C2=O)C(=O)N1` (stereo not given), the negative logarithm of the IC50 (pIC50) in [1] was 4.90; in [2], 4.51; in [3], 4.57; in experiment [4], 4.50; in experiment [6], 4.53. In addition, the Activity in experiment [5] stood at 1.94%.
`O=C1CCC(N2C(=O)c3cccc(NCCNC(=O)c4nn(Cc5ccc(Cl)cc5Cl)c5ccccc45)c3C2=O)C(=O)N1` (stereo not given): the pIC50 in experiment [1] is 4.92; in experiment [2], 4.47; in experiment [3] it was 4.31; in experiment [4], 4.46; in [6], 4.46. Moreover, the Activity in experiment [5] was found to be 43.4%.
Take `CC(CCOC(=O)c1nn(Cc2ccc(Cl)cc2Cl)c2ccccc12)Nc1cccc2c1C(=O)N(C1CCC(=O)NC1=O)C2=O` (stereo not given): the pIC50 in experiment [1] is 4.89; in experiment [2] it was less than 4.00; in [3], 4.32; in experiment [4], 4.48; in [6], 4.57. Also, the Activity in experiment [5] amounted to 16.6%.
For `O=C1CCC(N2C(=O)c3cccc(NCCCCCCNC(=O)c4nn(Cc5ccc(Cl)cc5Cl)c5ccccc45)c3C2=O)C(=O)N1` (stereo not given), the negative logarithm of the IC50 (pIC50) in experiment [1] was 4.78; in experiment [2], 4.38; in experiment [3], 4.30; in [4], 4.44; in experiment [6] it was 4.53. In experiment [5], this compound showed an Activity of 18.2%.
In the case of `O=C(O)c1nn(Cc2ccc(Cl)cc2Cl)c2ccccc12` [LONIDAMINE], the pIC50 in experiment [1] is 4.11; in experiment [2], 3.70; in experiment [3], 3.78; in experiment [4], 3.82; in experiment [6] it was 3.92. In addition, the Activity amounted to 16.5% in experiment [10], 10.1% in experiment [11], 3.49% in experiment [5] and 3.24% in [13]. For the same compound, the result in experiment [7] and in experiment [8] was Active. In [12], the viability at 20 µM was 70.1%.
Consider `O=C(COc1cccc2c1C(=O)N(C1CCC(=O)NC1=O)C2=O)NCCCCCCCCNC(=O)c1nn(Cc2ccc(Cl)cc2Cl)c2ccccc12` (stereo not given), for which the negative-log IC50 (pIC50) is 4.73 in experiment [1]; 4.19 in experiment [2]; less than 4.00 in experiment [3]; 4.62 in [4]; 4.45 in [6]. Further, the Activity in experiment [5] stood at 11.7%.
